Results from US10967038B2, “Use of cell-permeable peptide inhibitors of the JNK signal transduction pathway for the treatment of chronic or non-chronic inflammatory eye diseases” (priority 2010, dated 2021).

Columns and labels:
Assay type in all cases: in vivo, rat
[1] = system: inducible nitric oxide synthase (iNOS); experiment: iNOS expression in ocular tissues (immunohistochemistry, semi-quantitative RT-PCR); settings: IV or IVT, 24 h, vs control eyes
Experimental: Retinas and RPE/choroid/sclera complexes were also collected at 24 hours to analyze iNOS mRNA levels by RT-PCR and c-Jun phosphorylation state by Western-Blot. Tissues were collected only from eyes treated by IV (intravenous) injection of vehicle, IV injection of the JNK-inhibitor (poly-)peptide of SEQ ID NO: 11, IVT (intravitreal) injection of vehicle and IVT injection of the JNK-inhibitor (poly-)peptide of SEQ ID NO: 11 (n=2 eyes per condition collected from separate rats). Eyes were selected so that their EIU clinical score was representative of the mean of the experimental group they belong to, i.e 3 for eyes treated by IV and IVT injection of vehicle and 2 for eyes treated by IV or IVT injection of the JNK-inhibitor (poly-)peptide of SEQ ID NO: 11.
To characterize the cellular infiltrate, sections were double-stained with ED1 and iNOS. […] After staining nuclei with DAPI (Sigma-Aldrich, Saint-Quentin Fallavier, France), sections were mounted in PBS/Glycerol (1/1) and observed by fluorescence photomicroscopy (FXA, Microphot, Nikon, Melville, USA). […] ED1 positive cells and polymorphonuclear cells, identified by the shape of their nuclei stained with DAPI, were quantified on histological sections. […] Results were expressed as mean±standard error of the mean (SEM). […]

[2] = system: phospho-p44/42 MAPK (Erk1/2); experiment: Immunohistochemistry of phospho-p44/42 MAPK (Erk1/2) in EIU eyes; settings: 24 h
Experimental: (§1) A second set of experiment was designed to evaluate the anti-inflammatory effect of the JNK-inhibitor (poly-)peptide of SEQ ID NO: 11 at the cellular and tissue level as well as the biodistribution of this molecule 24 hours after administration. Rats were randomized into 11 experimental groups. 6 groups of rats with uveitis: untreated uveitic rats, rats injected intravenously with NaCl or the JNK-inhibitor (poly-)peptide of SEQ ID NO: 11 and rats injected intravitreously with the vehicle, the JNK-inhibitor (poly-)peptide of SEQ ID NO: 11 or dexamethasone. The 5 additional groups without uveitis were: untreated healthy rats, rats treated by NaCl IV or the JNK-inhibitor (poly-)peptide of SEQ ID NO: 11 IV and rats injected IVT with NaCl or the JNK-inhibitor (poly-)peptide of SEQ ID NO: 11. Three eyes from separate rats were collected per group and used for immunohistochemistry.
To analyze the ERK and p38 MAPK pathways, blots were sequentially incubated with a rabbit phospho-p44/42 MAPK (Erk1/2) (Thr202/Tyr204) (4370) primary antibody (or rabbit phospho-p38 MAPK (Thr180/Tyr182) (9215) antibody) and a horseradish peroxidase-conjugated goat anti-rabbit IgG (H+L) (PI-1000—Vector Laboratories, Clinisciences, Montrouge, France) secondary antibody at dilution 1:5000. […]

[3] = system: chemokines/cytokines; experiment: Chemokine/Cytokine Multiplex Assay on ocular fluids and sera
Experimental: Aqueous humor and vitreous were collected and pooled from each enucleated eye. Ocular fluids were immediately centrifuged and the cell-free fractions were collected and frozen at −20° C. before analysis by Multiplex assay. Blood samples were first clotted at room temperature for 2 hours and then at 4° C. overnight. Serum was collected, centrifuged and the clear supernatant was collected and frozen at −20° C. before Multiplex analysis.
In a first set of experiment, 70 rats were randomized into 14 experimental groups with 5 rats per group. Uveitis was induced in each group and rats were killed 6 hours (4 groups), 24 hours (6 groups) and 48 hours (4 groups) after LPS challenge. For each time point tested (i.e. 6 h, 24 h and 48 h), rats treated by intravenous or intravitreous injections of vehicle (NaCl 0.9%) or the JNK-inhibitor (poly-)peptide of SEQ ID NO: 11 were compared to untreated control uveitic rats. Two additional groups, treated by intravenous injection of vehicle and intravitreal injection of dexamethasone were used at 24 hours. Clinical ocular inflammation was recorded only at 24 hours (see Scoring of Endotoxin-Induced Uveitis (EIU) section). At each time point, intraocular fluids from each eye (n=10 per group) and serum from each animal (n=5 per group) were used for Chemokine/Cytokine Multiplex Assay.
Intraocular fluids (diluted to obtain a final volume of 25 μL) and sera (25 μL of 1:5 dilution) were subjected to multiplex bead analysis. This method uses microspheres as the solid support for immunoassays12 and allows the titration of a greater number of cytokines with increased sensitivity than occurs with ELISA.13 For each sample, seventeen analytes were quantified simultaneously using the rat Cytokine/Chemokine-17plex kit (Milliplex Map Kit, Millipore, Saint-Quentin-en-Yvelines, France) according to the manufacturer's instructions: Chemokines MCP-1/CCL2, MIP-1α/CCL3, RANTES/CCL5, IP-10/CXCL10 (IFN-inducible protein-10) and GRO/KC; proinflammatory mediators IL-1[…], IL-18 and TNF-[…]; Th1/Th2/Th17 cytokines IL-2 and IFN-[…]/IL-4, IL-5, IL-6, IL-10 and IL-13/IL-17. The assay was performed in a 96-well filter plate and standard curves for each cytokine were generated with a Rat Cytokine Standard provided in the kit. All incubation steps were performed under medium orbital agitation and in the dark to protect the beads from light. Data acquisition and analysis were performed with the manager software version 4.1 (Bioplex; Bio-Rad) with four or five logistic parameters for standard curves. Detection thresholds for all the analytes were estimated around 1 to 10 pg/mL.

[4] = Ocular biodistribution by immunohistochemistry against SEQ ID NO: 11
Experimental: For immunohistochemistry, eyeballs were collected and fixed for 1 h at room temperature in phosphate buffered saline (PBS) containing 4% paraformaldehyde before being rinsed overnight in PBS. The next day, samples were embedded and frozen in optimal cutting-temperature (OCT) compound (Tissue-Tek®, Sakura Finetek, Zoeterwoude, Netherland) and stored at −80° C. Frozen antero-posterior sections of eyes (10 μm thick) were performed at the optic nerve level using a cryostat (Leica CM 3050S, Rueil-Malmaison, France) and mounted on super-frost slides for immunohistochemical analysis.
as §1
Immunostaining of the JNK-inhibitor (poly-)peptide of SEQ ID NO: 11 was performed on healthy and uveitic eyes to study its ocular biodistribution after systemic or local administration. Briefly, sections were permeabilized as described above before being sequentially incubated with an anti-SEQ ID NO: 11 purified rabbit IgG and a secondary Alexa 594 (red)-conjugated goat anti-rabbit IgG (Invitrogen, Cergy Pontoise, France) diluted 1:100 and 1:250 in PBS respectively. Immunostaining of untreated healthy and uveitic eyes were used as negative controls. Nuclei were stained with DAPI before mounting and observation.

[5] = ocular fluids, IV injection, at 6 and 24 hours
[6] = ocular fluids, IV injection, at different time points
[7] = ocular fluids, IVT injection, at 6 hours, vs vehicle IVT
[8] = ocular fluids, IVT injection, at 24 hours, vs vehicle IVT
[9] = ocular fluids, treated versus untreated eyes, any tested time point

With `CC(C)C[C@@H](NC(=O)[C@@H](Cc1ccccc1)NC(=O)[C@H]1CCCN1C(=O)[C@@H](CCC(N)=O)NC(=O)[C@H](NC(=O)[C@H]1CCCN1C(=O)[C@@H](CCCNC(=N)N)NC(=O)[C@@H](CO)NC(=O)[C@@H](CCC(N)=O)NC(=O)[C@H](N)CC(=O)O)C(C)C)C(=O)N[C@H](CC(N)=O)C(=O)N[C@H](CC(C)C)C(=O)N[C@@H](C(=O)N[C@@H](C(=O)N1CCC[C@@H]1C(=O)N[C@H](CCCNC(=N)N)C(=O)N[C@H](CCCCN)C(=O)N1CCC[C@@H]1C(=O)N[C@H](CCCNC(=N)N)C(=O)N1CCC[C@@H]1C(=O)N1CCC[C@@H]1C(=O)N[C@H](CCCNC(=N)N)C(=O)N[C@H](CCCNC(=N)N)C(=O)N[C@H](CCCNC(=N)N)C(=O)N[C@H](CCC(N)=O)C(=O)N[C@H](CCCNC(=N)N)C(=O)N[C@H](CCCNC(=N)N)C(=O)N[C@H](CCCCN)C(=O)N[C@H](CCCCN)C(=O)N[C@H](CCCNC(=N)N)C(=O)NCC(=O)O)[C@H](C)O)[C@H](C)O` [SEQ ID NO: 11] the “number of iNOS positive cells” value [1] was “reduced”, the “effect on p-Erk1/2 signal in iris epithelium” value ([2]; iris) was “no effect” and the “effect on p-Erk1/2 signal in retinal Müller glial (RMG) cells” value ([2]; neuroretina, IV or IVT) was “no effect”. For the same compound, the MCP-1 level [3, 5] was “significant reduction”, the MIP-1α level [3, 5] was “significant reduction” and the RANTES level [3, 5] was “significant reduction”. For the same compound, the GRO/KC level ([3]; ocular fluids, IV injection, at 6 hours) was “significantly reduced”, the IL-10 level ([3]; ocular fluids, IV injection, at 6 hours, not significantly) was “tended to increase” and the IL-6 level [3, 6] was “significantly reduced”. For the same compound, the INF-γ level [3, 6] was “significantly reduced”, the TNF-α level [3, 6] was “significantly reduced” and the IL-2 level [3, 7] was “a trend to a decrease”. The IL-6 level [3, 7] was “a trend to a decrease”, the MCP-1 level [3, 7] was “a trend to a decrease” and the TNF-α level [3, 7] was “a trend to a decrease”. For the same compound, the IL-2 level [3, 8] was “marked decrease”, the IL-13 level [3, 8] was “increase” and the IL-1β level [3, 9] was “did not differ”. For the same compound, the IL-4 level [3, 9] was “did not differ”, the IL-18 level [3, 9] was “did not differ” and the “IL-2 level (tended to be reduced)” value ([3]; serum, IV administration) was “not statistically significant”. The “MIP-1α level (tended to be reduced)” value ([3]; serum, IV administration) was “not statistically significant”, the “IL-2 level (tended to be reduced)” value ([3]; serum, IVT administration) was “not statistically significant” and the “distribution in ocular tissues (immunoreactivity)” value (from here on “distribution in ocular tissues”) ([4]; EIU eyes, 24 h after IV injection, occasional infiltrating inflammatory cells immunopositive) was “not detected in ocular tissues”. For the same compound, the “distribution in ocular tissues” value ([4]; healthy eyes, 24 h after IV injection, 20 μg/kg) was “no signal was observed”, the “inflammatory cell infiltration in healthy eyes” value ([4]; healthy eyes, 24 h after IV or IVT) was “No inflammatory cell infiltration was observed” and the “distribution in ocular tissues” value ([4]; healthy eyes, 24 h after IVT injection, 0.2 μg/injection) was “distributed in almost all ocular tissues”. For the same compound, the “distribution in ocular tissues” value ([4]; uveitic eyes, 24 h after IVT injection, also in mobilized resident cells (microglial)) was “mostly found in ocular tissues like in healthy eyes”.
